Assay results taken from ChEMBL document CHEMBL2406948, “Skeletal rearrangement of seven-membered iminosugars: synthesis of (-)-adenophorine, (-)-1-epi-adenophorine and derivatives and evaluation as glycosidase inhibitors” (Bioorg Med Chem, 2013).

Tests used:
[1] = molecular target: Alpha-galactosidase (Coffea arabica) (UniProt Q42656); experiment: Inhibition of coffee bean alpha-galactosidase at 1000 uM
Canavalia ensiformis = experiment: Inhibition of jack beans alpha-mannosidase at 1000 uM
[2] = molecular target: T1, Uncharacterized protein (Sus scrofa) (UniProt I3LIR5); experiment: Inhibition of pig kidney alpha, alpha trehalase at 1000 uM
T1 sequence (whole entry): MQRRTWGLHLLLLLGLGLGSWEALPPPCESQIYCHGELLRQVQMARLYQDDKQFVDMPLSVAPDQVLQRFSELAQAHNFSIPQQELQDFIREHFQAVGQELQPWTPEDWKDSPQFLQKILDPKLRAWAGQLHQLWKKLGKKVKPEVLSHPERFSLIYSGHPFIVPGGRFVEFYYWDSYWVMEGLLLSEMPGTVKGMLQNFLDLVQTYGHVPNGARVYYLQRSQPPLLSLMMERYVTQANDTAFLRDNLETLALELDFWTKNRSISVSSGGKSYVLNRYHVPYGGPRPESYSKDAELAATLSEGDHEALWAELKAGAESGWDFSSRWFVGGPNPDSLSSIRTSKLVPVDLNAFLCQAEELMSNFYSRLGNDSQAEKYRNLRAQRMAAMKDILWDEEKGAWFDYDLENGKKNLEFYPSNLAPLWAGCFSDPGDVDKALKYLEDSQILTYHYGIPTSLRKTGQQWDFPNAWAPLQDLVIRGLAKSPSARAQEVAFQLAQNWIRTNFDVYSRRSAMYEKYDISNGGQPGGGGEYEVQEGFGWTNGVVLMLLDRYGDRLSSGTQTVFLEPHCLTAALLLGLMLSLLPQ

Aspergillus niger [3] = experiment: Inhibition of Aspergillus niger amyloglucosidase at 1000 uM
Aspergillus niger [4] = experiment: Inhibition of Aspergillus niger beta-glucosidase at 1000 uM
Oryza sativa = experiment: Inhibition of rice alpha-glucosidase at 1000 uM
[5] = molecular target: Oligo-1,6-glucosidase IMA1 (Saccharomyces cerevisiae S288c) (UniProt P53051); experiment: Inhibition of yeast alpha-glucosidase at 1000 uM
[6] = molecular target: T2, Beta-glucuronidase (Bos taurus) (UniProt A3KMY8); experiment: Inhibition of bovine liver beta-glucuronidase at 1000 uM
T2 sequence (whole entry): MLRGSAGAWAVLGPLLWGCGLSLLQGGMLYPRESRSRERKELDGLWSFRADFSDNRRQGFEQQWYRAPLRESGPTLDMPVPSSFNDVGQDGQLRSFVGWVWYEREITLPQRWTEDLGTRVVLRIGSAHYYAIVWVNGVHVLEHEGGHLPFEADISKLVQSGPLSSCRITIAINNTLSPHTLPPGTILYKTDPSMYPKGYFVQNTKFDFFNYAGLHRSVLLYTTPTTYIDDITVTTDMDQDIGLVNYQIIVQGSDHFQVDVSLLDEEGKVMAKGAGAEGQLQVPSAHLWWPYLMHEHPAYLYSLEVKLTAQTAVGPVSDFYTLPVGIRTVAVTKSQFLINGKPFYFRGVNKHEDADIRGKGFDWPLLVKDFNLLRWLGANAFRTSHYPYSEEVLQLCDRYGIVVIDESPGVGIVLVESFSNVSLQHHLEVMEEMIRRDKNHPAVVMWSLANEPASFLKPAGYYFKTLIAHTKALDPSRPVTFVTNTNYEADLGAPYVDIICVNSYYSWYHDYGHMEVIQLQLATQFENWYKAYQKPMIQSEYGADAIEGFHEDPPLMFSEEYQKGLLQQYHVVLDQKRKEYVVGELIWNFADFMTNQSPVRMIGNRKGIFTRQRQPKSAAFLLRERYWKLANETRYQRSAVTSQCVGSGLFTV

Rhizopus = experiment: Inhibition of Rhizopus sp. amyloglucosidase at 1000 uM
[7] = molecular target: T3, Alpha-glucosidase (Aspergillus niger) (UniProt P56526); experiment: Inhibition of Aspergillus niger alpha-glucosidase at 1000 uM
T3 sequence (whole entry): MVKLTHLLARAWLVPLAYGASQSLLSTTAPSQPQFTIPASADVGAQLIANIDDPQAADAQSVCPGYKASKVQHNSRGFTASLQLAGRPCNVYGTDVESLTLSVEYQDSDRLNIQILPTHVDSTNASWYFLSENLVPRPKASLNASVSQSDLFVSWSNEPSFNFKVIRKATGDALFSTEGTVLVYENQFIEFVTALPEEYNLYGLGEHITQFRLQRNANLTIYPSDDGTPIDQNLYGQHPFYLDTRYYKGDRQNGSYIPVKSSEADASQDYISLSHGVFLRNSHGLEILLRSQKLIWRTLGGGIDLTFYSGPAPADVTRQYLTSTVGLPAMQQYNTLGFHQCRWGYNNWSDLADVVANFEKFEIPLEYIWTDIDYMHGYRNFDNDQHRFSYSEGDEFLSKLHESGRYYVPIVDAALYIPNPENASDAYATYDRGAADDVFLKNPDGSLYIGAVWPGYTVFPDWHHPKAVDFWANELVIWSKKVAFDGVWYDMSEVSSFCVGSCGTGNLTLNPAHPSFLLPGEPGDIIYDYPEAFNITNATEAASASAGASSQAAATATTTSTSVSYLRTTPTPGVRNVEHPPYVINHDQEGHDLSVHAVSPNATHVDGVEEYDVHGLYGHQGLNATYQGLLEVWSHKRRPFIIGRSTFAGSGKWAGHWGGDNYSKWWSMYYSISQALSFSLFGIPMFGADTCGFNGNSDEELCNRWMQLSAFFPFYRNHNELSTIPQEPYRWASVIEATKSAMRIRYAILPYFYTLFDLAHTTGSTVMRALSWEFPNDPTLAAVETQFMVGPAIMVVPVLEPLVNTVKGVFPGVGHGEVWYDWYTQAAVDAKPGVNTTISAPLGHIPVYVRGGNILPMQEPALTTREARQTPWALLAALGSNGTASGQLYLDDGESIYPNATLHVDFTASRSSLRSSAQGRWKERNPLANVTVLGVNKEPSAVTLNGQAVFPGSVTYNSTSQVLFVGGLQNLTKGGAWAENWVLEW

Prunus dulcis = experiment: Inhibition of almond beta-glucosidase at 1000 uM
Rattus norvegicus = species: Rattus norvegicus; experiment: Inhibition of rat intestinal maltase alpha-glucosidase at 1000 uM
Helix pomatia = experiment: Inhibition of snail beta-mannosidase at 1000 uM

Sequence of Oligo-1,6-glucosidase IMA1 (Saccharomyces cerevisiae S288c) (P53051 whole entry): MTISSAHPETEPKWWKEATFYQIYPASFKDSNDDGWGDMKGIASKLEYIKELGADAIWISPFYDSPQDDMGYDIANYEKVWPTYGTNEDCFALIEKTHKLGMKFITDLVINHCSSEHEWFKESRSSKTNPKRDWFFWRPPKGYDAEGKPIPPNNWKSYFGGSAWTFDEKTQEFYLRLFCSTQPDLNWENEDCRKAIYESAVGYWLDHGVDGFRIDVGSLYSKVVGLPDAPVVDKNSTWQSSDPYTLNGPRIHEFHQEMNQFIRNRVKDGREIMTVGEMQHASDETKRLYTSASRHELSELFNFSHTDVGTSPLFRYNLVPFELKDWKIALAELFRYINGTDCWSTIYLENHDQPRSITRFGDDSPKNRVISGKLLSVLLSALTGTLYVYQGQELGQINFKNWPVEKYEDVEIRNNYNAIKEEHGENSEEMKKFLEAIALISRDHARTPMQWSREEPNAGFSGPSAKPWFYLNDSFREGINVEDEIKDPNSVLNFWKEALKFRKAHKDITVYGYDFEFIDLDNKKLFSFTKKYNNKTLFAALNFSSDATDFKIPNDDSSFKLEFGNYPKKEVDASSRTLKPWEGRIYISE
Sequence of Alpha-galactosidase (Coffea arabica) (Q42656 16-378 limits assumed): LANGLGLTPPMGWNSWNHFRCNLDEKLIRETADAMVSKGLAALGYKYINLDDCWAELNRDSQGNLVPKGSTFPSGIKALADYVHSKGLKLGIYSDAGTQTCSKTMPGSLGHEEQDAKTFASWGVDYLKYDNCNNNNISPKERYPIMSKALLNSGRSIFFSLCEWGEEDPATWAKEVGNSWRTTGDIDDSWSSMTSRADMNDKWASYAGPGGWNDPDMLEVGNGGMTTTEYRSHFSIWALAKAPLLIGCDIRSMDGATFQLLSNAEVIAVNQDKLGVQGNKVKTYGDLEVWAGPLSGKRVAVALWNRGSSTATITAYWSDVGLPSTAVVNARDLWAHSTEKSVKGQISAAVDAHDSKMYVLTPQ

Structure (SMILES)	inhibition [1] [%]	inhibition (Canavalia ensiformis) [%]	inhibition [2] [%]	inhibition (Aspergillus niger [3]) [%]	inhibition (Aspergillus niger [4]) [%]	inhibition (Oryza sativa) [%]	inhibition [5] [%]	inhibition [6] [%]	inhibition (Rhizopus) [%]	inhibition [7] [%]	inhibition (Prunus dulcis) [%]	inhibition (Rattus norvegicus) [%]	inhibition (Helix pomatia) [%]
CC[C@@H]1N[C@H](CC)[C@H](O)[C@@H](O)[C@@H]1O	3.7	0.4	4.9	4.1	0	1.7	2	0.5	3.4	0	21.4	0	0.3
CC[C@@H]1N[C@@H](CO)[C@@H](O)[C@H](O)[C@H]1O	0.6	0	6	0	0	0	0	0.8	0	6.1	33.5	0	0
CC[C@H]1N[C@@H](CO)[C@@H](O)[C@H](O)[C@H]1O	8.7	5.1	0	1.9	0	0	9	0	0	0	16.9	3.3	0
CCC[C@@H]1N[C@@H](CO)[C@@H](O)[C@H](O)[C@H]1O	10.4	5.1	0	0	0	0	40	0	0	1.4	42.6	0	1.3

Second part, the compound after the results:

inhibition [1] [%]	inhibition (Canavalia ensiformis) [%]	inhibition [2] [%]	inhibition (Aspergillus niger [3]) [%]	inhibition (Aspergillus niger [4]) [%]	inhibition (Oryza sativa) [%]	inhibition [5] [%]	inhibition [6] [%]	inhibition (Rhizopus) [%]	inhibition [7] [%]	inhibition (Prunus dulcis) [%]	inhibition (Rattus norvegicus) [%]	inhibition (Helix pomatia) [%]	Structure (SMILES)
1.2	0	3.9	0.8	0	1	0	0.1	0	0	5.1	0	0	CC[C@H]1NC[C@@H](O)[C@@H](O)[C@H](O)[C@H]1O
7.5	11	0	0	0	0	23.5	0.1	0	0.2	48.7	13.7	0	CC[C@@H]1NC[C@@H](O)[C@@H](O)[C@H](O)[C@H]1O
